In ChEMBL document CHEMBL2010711, “Synthesis and comparative evaluation of 4-oxa- and 4-aza-podophyllotoxins as antiproliferative microtubule destabilizing agents” (Bioorg Med Chem Lett, 2012):
Active and inactive are the calls of the source.

Legend:
[1] = system: Paracentrotus lividus; experiment: Antimitotic activity against Paracentrotus lividus embryo assessed as concentration required to cause 100% cleavage alteration after 2.5 to 6 hrs; type: functional
[2] = system: Paracentrotus lividus; experiment: Antimitotic activity against Paracentrotus lividus embryo assessed as concentration required to cause 100% cleavage arrest after 2.5 to 6 hrs; type: functional
[3] = system: Paracentrotus lividus; experiment: Microtubule destabilizing activity in Paracentrotus lividus embryo assessed as concentration required to cause 100% embryo spinning after 15 mins to 20 hrs; type: functional
[4] = system: Paracentrotus lividus; experiment: Antimitotic activity against Paracentrotus lividus embryo assessed as cleavage alteration at 2 fold less effective threshold concentration after 2.5 to 6 hrs; type: functional, organism-based
[5] = system: Paracentrotus lividus; experiment: Antimitotic activity against Paracentrotus lividus embryo assessed as cleavage arrest at 2 fold less effective threshold concentration after 2.5 to 6 hrs; type: functional, organism-based
[6] = system: Paracentrotus lividus; experiment: Microtubule destabilizing activity in Paracentrotus lividus embryo assessed as embryo spinning at 2 fold less effective threshold concentration after 15 mins to 20 hrs; type: functional, organism-based

Row | Structure (SMILES) | EC [1] [nM] | EC [2] [nM] | EC [3] [nM] | Activity [4] | Activity [5] | Activity [6]
1 | COc1ccc2c(c1)C(c1cc(OC)c(OC)c(OC)c1)C1=C(COC1=O)O2 (stereo not given) | 100 | 2000 | 5000 | inactive | inactive | inactive
2 | COc1cc2c(c(OC)c1OC)C(c1ccccc1)C1=C(COC1=O)O2 (stereo not given) | 2000 | >4000 | >4000 | inactive | inactive | inactive
3 | COc1ccc2c(c1)OC1=C(C(=O)OC1)C2c1cc(OC)c2c(c1OC)OCO2 (stereo not given) | 100 | 500 | 4000 | inactive | inactive | inactive
4 | COc1ccc2c(c1)NC1=C(C(=O)OC1)C2c1cc(OC)c(OC)c(OC)c1 (stereo not given) | 50 | 500 | 500 | inactive | inactive | inactive
5 | COc1cc([C@H]2C3=C(COC3=O)Nc3cc4c(cc32)OCO4)cc(OC)c1OC |  |  |  | inactive | inactive | inactive
6 | COc1cc(OC)cc(C2C3=C(COC3=O)Oc3cc(OC)ccc32)c1 (stereo not given) | 1 | 5 | 50 | inactive | inactive | inactive
7 | COc1ccc2c(c1)NC1=C(C(=O)OC1)C2c1cc(OC)c2c(c1)OCCO2 (stereo not given) | 10 | 50 | 1000 | inactive | inactive | inactive
8 | COc1ccc2c(c1)C(c1cc(OC)c3c(c1)OCO3)C1=C(COC1=O)O2 (stereo not given) | 50 | 200 | 2000 | inactive | inactive | inactive
